Measured values published in patent US20130225427A1, “METHOD FOR PREDICTION OF RESPONSE TO IMMUNE MEDIATED DISEASE THERAPEUTICS” (SANFORD-BURNHAM MEDICAL RESEARCH INSTITUTE, priority 2010, published 2013).

Key:
Assay type in all cases: in vivo, human
Treg = experiment: Suppression activity of Treg on CFSE-labelled TE proliferation; conditions: when clinical response is seen (FIG. 3)
Method: (§1) PBMCs from each patient were incubated for 48 hours with plate bound anti-CD3/CD28. Non-adherent cells were collected to enrich T cells by pan T-cell MACS. T cells were FACS sorted on CD4+CD127+ (TE) and CD4+CD25+CD127− (nTreg), and CD4+CD25+PD1+CD127− (PD1+ Treg). Aliquots of all sorted cells were collected for TaqMan. The remainder of the APCs and TE were cultured with isolated Treg. CFSE was added to the TE cells and cultured for a total of 4 days with anti-CD3/CD28.

PD1 + Treg = experiment: Taqman gene expression in sorted CD4+CD25+PD1+CD127− PD1+ Treg of treated RA clinical responders; conditions: compared to initiation of the treatment
Method: (§2) The aim of this study is to identify clusters of immune pathways characteristic of responsiveness that are specific to treatment. […] We clustered individual immune functions according to cut off values identified in preliminary studies (25% change compared with baseline at active disease).
as §1

Te Cells = experiment: Taqman gene expression in sorted CD4+CD127+ effector T cells (TE) of treated RA clinical responders; conditions: compared to initiation of the treatment
Excerpt: as §2, with “We show as summary a color coded table. We” for “We”, “disease). The Table 1 depicts the differences for patients who are all responders and therefore otherwise clinically indistinguishable ([…]).” for “disease).”
as §1

nTreg = experiment: Taqman gene expression in sorted CD4+CD25+CD127− nTreg of treated RA clinical responders; conditions: compared to initiation of the treatment
Excerpt: as §2, with “We show as summary a color coded table. We” for “We”, “disease). The Table 1 depicts the differences for patients who are all responders and therefore otherwise clinically indistinguishable ([…]).” for “disease).”
as §1

APC = experiment: Taqman gene expression in APC from PBMC of treated RA clinical responders; conditions: compared to initiation of the treatment
Excerpt: as §2, with “We show as summary a color coded table. We” for “We”, “disease). The Table 1 depicts the differences for patients who are all responders and therefore otherwise clinically indistinguishable ([…]).” for “disease).”
as §1

CN(Cc1cnc2nc(N)nc(N)c2n1)c1ccc(C(=O)N[C@@H](CCC(=O)O)C(=O)O)cc1 [MTX, methotrexate]
suppressive capability of Treg to suppress effector proliferation (Treg): enhanced
CTLA4 up or down regulated (PD1 + Treg): up regulated (cut off values identified in preliminary studies (25% change compared with baseline at active disease))
FoxP3 up or down regulated (PD1 + Treg): up regulated (cut off values identified in preliminary studies (25% change compared with baseline at active disease))
Granzyme B up or down regulated (PD1 + Treg): up regulated (cut off values identified in preliminary studies (25% change compared with baseline at active disease))
IL-10 up or down regulated (PD1 + Treg): up regulated (cut off values identified in preliminary studies (25% change compared with baseline at active disease))
INFγ up or down regulated (PD1 + Treg): up regulated (cut off values identified in preliminary studies (25% change compared with baseline at active disease))
PD1 up or down regulated (PD1 + Treg): up regulated (cut off values identified in preliminary studies (25% change compared with baseline at active disease))
Perforin up or down regulated (PD1 + Treg): up regulated (cut off values identified in preliminary studies (25% change compared with baseline at active disease))
TGFβ up or down regulated (PD1 + Treg): up regulated (cut off values identified in preliminary studies (25% change compared with baseline at active disease))
percent change in expression of FoxP3 (PD1 + Treg): +124.1%
percent change in expression of Granzyme B (PD1 + Treg): +213.8%
percent change in expression of IL-10 (PD1 + Treg): 168.8%
percent change in expression of INFγ (PD1 + Treg): +355.0%
percent change in expression of PD1 (PD1 + Treg): 290.3%
percent change in expression of Perforin (PD1 + Treg): +288.7%
percent change in expression of TGFβ (PD1 + Treg): +254.4%
IL-10 up or down regulated (Te Cells): no change (cut off values identified in preliminary studies (25% change compared with baseline at active disease))
IL-17A up or down regulated (Te Cells): no change (cut off values identified in preliminary studies (25% change compared with baseline at active disease))
TGFβ up or down regulated (Te Cells): up regulated (cut off values identified in preliminary studies (25% change compared with baseline at active disease))
percent change in expression of FAS-L (Te Cells): 20.5%
percent change in expression of GATA-3 (Te Cells): −21.6%
percent change in expression of ICOS (Te Cells): −7.2%
percent change in expression of IL-10 (Te Cells): +15.2%
percent change in expression of IL-17A (Te Cells): +0.3%
percent change in expression of INFγ (Te Cells): +1.7%
percent change in expression of PD-1 (Te Cells): +5.6%
percent change in expression of TGFβ (Te Cells): +150.8%
percent change in expression of TNFα (Te Cells): 2.3%
percent change in expression of Tbet (Te Cells): −17.1%
CTLA4 up or down regulated (nTreg): up regulated (cut off values identified in preliminary studies (25% change compared with baseline at active disease))
FoxP3 up or down regulated (nTreg): up regulated (cut off values identified in preliminary studies (25% change compared with baseline at active disease))
Granzyme B up or down regulated (nTreg): up regulated (cut off values identified in preliminary studies (25% change compared with baseline at active disease))
INFγ up or down regulated (nTreg): up regulated (cut off values identified in preliminary studies (25% change compared with baseline at active disease))
PD1 up or down regulated (nTreg): up regulated (cut off values identified in preliminary studies (25% change compared with baseline at active disease))
TGFβ up or down regulated (nTreg): up regulated (cut off values identified in preliminary studies (25% change compared with baseline at active disease))
percent change in expression of CTLA4 (nTreg): +684.0%
percent change in expression of FoxP3 (nTreg): 439.0%
percent change in expression of Granzyme B (nTreg): +393.7%
percent change in expression of INFγ (nTreg): +99.6%
percent change in expression of PD1 (nTreg): +474.2%
percent change in expression of TGFβ (nTreg): +69.3%
B7-H1 up or down regulated (APC): up regulated (cut off values identified in preliminary studies (25% change compared with baseline at active disease))
B7-H2 up or down regulated (APC): up regulated (cut off values identified in preliminary studies (25% change compared with baseline at active disease))
B7-H4 up or down regulated (APC): up regulated (cut off values identified in preliminary studies (25% change compared with baseline at active disease))
FAS-L up or down regulated (APC): up regulated (cut off values identified in preliminary studies (25% change compared with baseline at active disease))
IL-10 up or down regulated (APC): up regulated (cut off values identified in preliminary studies (25% change compared with baseline at active disease))
INFγ up or down regulated (APC): up regulated (cut off values identified in preliminary studies (25% change compared with baseline at active disease))
TGFβ up or down regulated (APC): up regulated (cut off values identified in preliminary studies (25% change compared with baseline at active disease))
percent change in expression of B7-H1 (APC): +106.4%
percent change in expression of B7-H2 (APC): +98.4%
percent change in expression of B7-H4 (APC): +118.6%
percent change in expression of FAS-L (APC): +83.1%
percent change in expression of IL-10 (APC): +28.6%
percent change in expression of INFγ (APC): +219.9%
percent change in expression of TGFβ (APC): +31.1%
